Measurements: ChEMBL document CHEMBL1201862, “PubChem BioAssay data set” (2004)
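Cultured in 96-well plates, cells were exposed to test compound for 48 hours across five concentrations. GI50: concentration for 50% inhibition of growth.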 Calls of active or inactive are those of the source. Rule as the data show it: active = GI50 up to about 1.1 µM and inactive = higher.

Columns and labels:
Assay in all cases: NCI tumour cell line growth inhibition, 48 h
SR = test system: SR
NCI-H226 = test system: NCI-H226
M14 = test system: M14
HT-29 = test system: HT-29
LOX IMVI = test system: LOX IMVI
RXF 393 = test system: RXF 393
U-251 = test system: U-251
SN12C = test system: SN12C
HOP-62 = test system: HOP-62
SK-MEL-28 = test system: SK-MEL-28
OVCAR-4 = test system: OVCAR-4
COLO 205 = test system: COLO 205
SNB-19 = test system: SNB-19
CAKI-1 = test system: CAKI-1
HCC 2998 = test system: HCC 2998
SF-268 = test system: SF-268
RPMI-8226 = test system: RPMI-8226

Measured: GI50

COc1ccc(/C=C/C(=N\NC(=O)c2ccccc2)c2sc(Nc3ccc([N+](=O)[O-])cc3)nc2C)cc1OC
inactive: SR 5.18 µM | NCI-H226 18.2 µM | M14 14.1 µM | HT-29 17 µM | LOX IMVI 3.75 µM | RXF 393 12.9 µM | U-251 5.3 µM | SN12C 13.9 µM | HOP-62 18.2 µM | SK-MEL-28 21.1 µM | OVCAR-4 11.6 µM | COLO 205 21.3 µM | SNB-19 12.4 µM | CAKI-1 17.7 µM | HCC 2998 29.6 µM | SF-268 13.2 µM

COc1ccc(C2C(Cl)C(=O)N2NC(=O)c2ccc(N)cc2)cc1 (stereo unspecified)
inactive: NCI-H226 > 100 µM | M14 > 100 µM | RPMI-8226 > 100 µM | HT-29 > 100 µM | LOX IMVI > 100 µM | U-251 > 100 µM | SN12C > 100 µM | HOP-62 > 100 µM | SK-MEL-28 > 100 µM | OVCAR-4 > 100 µM | COLO 205 > 100 µM | SNB-19 > 100 µM | CAKI-1 > 100 µM | HCC 2998 > 100 µM

COc1cc(OC)c(C#N)c(OC)c1C
inactive: SR > 100 µM | NCI-H226 > 100 µM | HT-29 > 100 µM | LOX IMVI > 100 µM | RXF 393 > 100 µM | U-251 > 100 µM | SN12C > 100 µM | HOP-62 > 100 µM | SK-MEL-28 > 100 µM | OVCAR-4 > 100 µM | SNB-19 > 100 µM | CAKI-1 > 100 µM | SF-268 > 100 µM

COc1ccc(C2Oc3cc(OC)c(O)cc3[C@@H]2C)cc1 (stereo partly specified)
inactive: NCI-H226 17.2 µM | M14 19.1 µM | RPMI-8226 22.3 µM | HT-29 40.7 µM | LOX IMVI 14.3 µM | RXF 393 28.2 µM | U-251 > 100 µM | HOP-62 > 100 µM | SK-MEL-28 56.8 µM | OVCAR-4 32.5 µM | COLO 205 > 100 µM | SNB-19 1.87 µM | CAKI-1 29.3 µM | HCC 2998 57.5 µM | SF-268 48.8 µM

O=Cc1cn(C(=O)c2ccccc2)c2ccccc12
inactive: NCI-H226 56 µM | M14 > 100 µM | RPMI-8226 37.2 µM | HT-29 71.3 µM | RXF 393 53.5 µM | U-251 > 100 µM | HOP-62 > 100 µM | SK-MEL-28 > 100 µM | OVCAR-4 > 100 µM | CAKI-1 82.8 µM | HCC 2998 > 100 µM

CN(C)CCC(/C=C/c1ccccc1)=N\Nc1c(F)c(F)c(F)c(F)c1F
inactive: SR 28.4 µM | M14 44.1 µM | RPMI-8226 24.8 µM | HT-29 27 µM | LOX IMVI > 100 µM | RXF 393 11.3 µM | U-251 > 100 µM | SN12C 64.6 µM | HOP-62 > 100 µM | SK-MEL-28 > 100 µM | OVCAR-4 > 100 µM | COLO 205 > 100 µM | SNB-19 > 100 µM | SF-268 > 100 µM

Cc1cc(O)nc(NNC(C#N)c2cccc(O)c2)n1 (stereo unspecified)
inactive: SR > 100 µM | NCI-H226 > 100 µM | M14 > 100 µM | RPMI-8226 > 100 µM | HT-29 > 100 µM | LOX IMVI > 100 µM | RXF 393 > 100 µM | U-251 > 100 µM | SN12C > 100 µM | HOP-62 > 100 µM | SK-MEL-28 > 100 µM | OVCAR-4 > 100 µM | COLO 205 > 100 µM | CAKI-1 > 100 µM | SF-268 > 100 µM

CCOC(=O)CC(=O)ON(C)C(=O)Cc1ccccc1
inactive: SR > 100 µM | NCI-H226 > 100 µM | M14 > 100 µM | RPMI-8226 > 100 µM | HT-29 > 100 µM | LOX IMVI > 100 µM | U-251 > 100 µM | SN12C > 100 µM | HOP-62 > 100 µM | OVCAR-4 > 100 µM | COLO 205 > 100 µM | SNB-19 > 100 µM | CAKI-1 > 100 µM | SF-268 > 100 µM

COc1ccc(S(=O)(=O)N/N=C(\C)CN2C(=O)c3ccccc3C2=O)cc1
inactive: SR > 100 µM | NCI-H226 > 100 µM | M14 > 100 µM | RPMI-8226 > 100 µM | HT-29 > 100 µM | LOX IMVI > 100 µM | U-251 > 100 µM | SN12C > 100 µM | HOP-62 > 100 µM | SK-MEL-28 > 100 µM | OVCAR-4 > 100 µM | COLO 205 > 100 µM | SNB-19 > 100 µM | CAKI-1 > 100 µM | HCC 2998 > 100 µM | SF-268 > 100 µM

CCOC(=O)[C@H]1Nc2ccc(Cl)cc2[C@H]2OCC[C@@H]12
inactive: NCI-H226 > 100 µM | M14 > 100 µM | HT-29 > 100 µM | LOX IMVI > 100 µM | RXF 393 > 100 µM | U-251 > 100 µM | SN12C > 100 µM | HOP-62 > 100 µM | SK-MEL-28 > 100 µM | OVCAR-4 > 100 µM | COLO 205 > 100 µM | SNB-19 > 100 µM | CAKI-1 > 100 µM | HCC 2998 > 100 µM | SF-268 > 100 µM

O=C(c1ccc(O)cc1O)C1C(c2ccc(O)cc2)OC(c2ccc(O)cc2)C1C(=O)c1ccc(O)cc1O (stereo unspecified)
inactive: NCI-H226 17.2 µM | M14 18 µM | HT-29 34.2 µM | LOX IMVI 19.5 µM | RXF 393 25.5 µM | U-251 16.5 µM | SN12C > 10 µM | HOP-62 5.26 µM | SK-MEL-28 19.4 µM | OVCAR-4 28.4 µM | SNB-19 20.6 µM | CAKI-1 45.6 µM | HCC 2998 13.8 µM | SF-268 17.1 µM

Cc1cc(N(CCC#N)CCC#N)ccc1/N=N/c1cccc(C(=O)O)c1
inactive: NCI-H226 > 100 µM | M14 > 100 µM | HT-29 > 100 µM | LOX IMVI > 100 µM | RXF 393 > 100 µM | U-251 > 100 µM | SN12C > 100 µM | HOP-62 > 100 µM | SK-MEL-28 97.7 µM | OVCAR-4 > 100 µM | COLO 205 > 100 µM | CAKI-1 > 100 µM | HCC 2998 > 100 µM | SF-268 > 100 µM

COC(=O)C(Cc1nc2ccccc2nc1O)C(=O)C(=O)Nc1ccc(F)cc1 (stereo unspecified)
inactive: SR 33 µM | NCI-H226 > 100 µM | M14 74.8 µM | HT-29 42.6 µM | LOX IMVI 41.3 µM | RXF 393 23.4 µM | SN12C 40.9 µM | HOP-62 > 100 µM | SK-MEL-28 27.4 µM | OVCAR-4 77.3 µM | COLO 205 37.9 µM | SNB-19 > 100 µM | CAKI-1 > 100 µM | HCC 2998 > 100 µM | SF-268 13.1 µM

C=C1C(=O)O[C@@H]2C[C@]3(C)[C@@H](C[C@H]12)[C@](C)(O)CC[C@@H]3O
inactive: NCI-H226 48.3 µM | M14 31.5 µM | RPMI-8226 52.7 µM | HT-29 33.3 µM | LOX IMVI 55.7 µM | U-251 > 100 µM | SN12C 59.4 µM | HOP-62 > 100 µM | SK-MEL-28 65.2 µM | OVCAR-4 > 100 µM | COLO 205 38.8 µM | SNB-19 > 100 µM | CAKI-1 66.1 µM | HCC 2998 > 100 µM | SF-268 42.4 µM
